We go through ten compounds from ChEMBL document CHEMBL1201862, “PubChem BioAssay data set” (2004).

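Compound exposure: 48 hours, 5 concentrations, 96-well plates. The concentration for 50% growth inhibition is given as GI50.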 Calls of active or inactive are those of the source. Rule as the data show it: active = GI50 up to about 1.1 µM and inactive = higher. Some results are limits rather than exact numbers.

Some test systems named below: M14; Malme-3M; CAKI-1; U-251; HOP-62; OVCAR-3; SNB-19; SW-620; DU-145; NCI-H522; SNB-75; EKVX; OVCAR-5; LOX IMVI; MDA-MB-435; UACC-62; NCI/ADR-RES; UACC-257; SF-539; HOP-92.
Common to all, as to assay: NCI tumour cell line growth inhibition, 48 h

With `Oc1ccc(Cl)cc1CN1CCN(Cc2cc(Cl)ccc2O)C1`, the GI50 with M14 is 0.553 µM (active); with Malme-3M, 2.17 µM (inactive); in the experiment with CAKI-1, 1.88 µM (inactive); in the experiment with U-251 it was 1.11 µM (active); in the experiment on HOP-62, 0.617 µM (active); in the experiment with OVCAR-3 it was 0.367 µM (active). The GI50 with SNB-19 is 2.86 µM (inactive); with SW-620 it was 0.547 µM (active); in the experiment with DU-145, 1.92 µM (inactive); with NCI-H522 it was 3.31 µM (inactive); in the experiment with SNB-75, 1.52 µM (inactive); in the experiment with EKVX, 1.57 µM (inactive). Besides, the GI50 in the experiment on OVCAR-5 was 5.09 µM (inactive); with LOX IMVI it was 0.489 µM (active); in the experiment on MDA-MB-435, 1.33 µM (inactive); in the experiment on UACC-62, 1.85 µM (inactive); in the experiment with NCI/ADR-RES, 0.152 µM (active); in the experiment on UACC-257 it was 1.86 µM (inactive). Besides, the results for the GI50 with SF-539 and with HOP-92 were 0.946 µM (active) and 1.15 µM (inactive), respectively.
As to `COc1cc2c(cc1OC)[C@@](C)(C(O)C(O)C(C)(C)O)NCC2` (some centres not stated), the GI50 in the experiment on M14, in the experiment on Malme-3M, in the experiment on CAKI-1, in the experiment on U-251, with HOP-62 and in the experiment on OVCAR-3 was > 100 µM (inactive) throughout. Besides, the GI50 with SNB-19, in the experiment on DU-145, with NCI-H522, in the experiment on SNB-75, with EKVX and in the experiment on OVCAR-5 was > 100 µM (inactive) throughout. Moreover, the GI50 in the experiment with LOX IMVI, in the experiment with MDA-MB-435, in the experiment on UACC-62, in the experiment on NCI/ADR-RES, in the experiment with UACC-257 and in the experiment on SF-539 was > 100 µM (inactive) each time. In addition, the GI50 in the experiment on HOP-92 is > 100 µM (inactive).
Consider `C(=N\c1ccc(-c2nc3ccccc3[nH]2)cc1)/c1ccco1`, for which the GI50 in the experiment with M14 was > 100 µM (inactive); with Malme-3M, > 100 µM (inactive); in the experiment with CAKI-1 it was > 100 µM (inactive); in the experiment with HOP-62, > 100 µM (inactive); in the experiment with OVCAR-3, 91.4 µM (inactive); with SW-620 it was 89.1 µM (inactive). In addition, the GI50 in the experiment with DU-145 is > 100 µM (inactive); in the experiment on NCI-H522, 53.1 µM (inactive); in the experiment on SNB-75, > 100 µM (inactive); in the experiment on EKVX it was > 100 µM (inactive); in the experiment with OVCAR-5 it was > 100 µM (inactive); with LOX IMVI it was 67 µM (inactive). The GI50 in the experiment on MDA-MB-435 is 48.4 µM (inactive); in the experiment with UACC-62, 89.7 µM (inactive); with NCI/ADR-RES, 84.9 µM (inactive); in the experiment with UACC-257 it was > 100 µM (inactive); in the experiment with SF-539, 77.8 µM (inactive); with HOP-92, 44.1 µM (inactive).
In the case of `[N-]=[N+]=C1CNC(=O)NC1=O`, the GI50 in the experiment with M14 was 58.6 µM (inactive); with Malme-3M it was > 100 µM (inactive); in the experiment on CAKI-1, > 100 µM (inactive); with U-251 it was > 100 µM (inactive); in the experiment on HOP-62, > 100 µM (inactive); with OVCAR-3, > 100 µM (inactive). The GI50 in the experiment on SNB-19 was > 100 µM (inactive); in the experiment with SW-620, > 100 µM (inactive); with DU-145, > 100 µM (inactive); in the experiment on NCI-H522, > 100 µM (inactive); with SNB-75, 13.5 µM (inactive); in the experiment with EKVX, > 100 µM (inactive). Moreover, the GI50 in the experiment with OVCAR-5 was > 100 µM (inactive); in the experiment on LOX IMVI, 60.1 µM (inactive); in the experiment on MDA-MB-435, 95.7 µM (inactive); in the experiment on UACC-62, > 100 µM (inactive); with NCI/ADR-RES, > 100 µM (inactive); in the experiment on UACC-257, > 100 µM (inactive). The GI50 with SF-539 and in the experiment with HOP-92 was > 100 µM (inactive) in each case.
As to `CC(C)(C)C1=C(Br)C(OC(=O)C(F)(F)F)(C(C)(C)C)OP1(=O)c1ccccc1` (configuration not stated), the GI50 was 36.1 µM (inactive) in the experiment with M14; 65 µM (inactive) in the experiment with Malme-3M; 0.0643 µM (active) with CAKI-1; 35.6 µM (inactive) in the experiment on U-251; 25.9 µM (inactive) with HOP-62; 31.9 µM (inactive) in the experiment on OVCAR-3. For the same compound, the GI50 in the experiment on SNB-19 is 57.4 µM (inactive); with DU-145 it was 45.2 µM (inactive); in the experiment on NCI-H522, 42.2 µM (inactive); in the experiment with SNB-75, 33.4 µM (inactive); in the experiment on EKVX it was 23.8 µM (inactive); with OVCAR-5 it was > 100 µM (inactive). Further, the GI50 with LOX IMVI is 45.8 µM (inactive); with MDA-MB-435, 53.3 µM (inactive); in the experiment with UACC-62, 28.8 µM (inactive); in the experiment with NCI/ADR-RES, 35.1 µM (inactive); with UACC-257, 72.9 µM (inactive); in the experiment with SF-539, 37.9 µM (inactive). Besides, the GI50 with HOP-92 was 36.5 µM (inactive).
In the case of `OCC(O)C(O)C(O)C1SC(c2ccccc2)=NN1c1ccccc1` (configuration not stated), the GI50 was 83 µM (inactive) in the experiment with M14; > 82 µM (inactive) in the experiment on Malme-3M; > 100 µM (inactive) with CAKI-1; 51.4 µM (inactive) in the experiment on U-251; 38.9 µM (inactive) in the experiment with HOP-62; > 68.9 µM (inactive) with OVCAR-3. Also, the GI50 is 49.8 µM (inactive) in the experiment with SNB-19; > 100 µM (inactive) with SW-620; > 61 µM (inactive) with DU-145; 33 µM (inactive) in the experiment on NCI-H522; 16 µM (inactive) in the experiment on SNB-75; > 95.7 µM (inactive) with EKVX. For the same compound, the GI50 in the experiment on OVCAR-5 is > 84.9 µM (inactive); in the experiment on LOX IMVI, 50.7 µM (inactive); in the experiment on MDA-MB-435, 97.9 µM (inactive); in the experiment on UACC-62, 47 µM (inactive); in the experiment on NCI/ADR-RES, > 70.1 µM (inactive); in the experiment on UACC-257 it was > 89.1 µM (inactive). In addition, the GI50 was 41.2 µM (inactive) with SF-539 and 27 µM (inactive) with HOP-92.
Take `COc1cc2c(cc1C)NC(=O)/C2=C\c1cccnc1`: the GI50 with M14 is 12.9 µM (inactive); with Malme-3M it was 15 µM (inactive); in the experiment on CAKI-1, 15.4 µM (inactive); in the experiment on U-251, 12.9 µM (inactive); with HOP-62, 22.4 µM (inactive); with OVCAR-3, 13.7 µM (inactive). Besides, the GI50 with SNB-19 is 12.6 µM (inactive); with SW-620, 26.8 µM (inactive); with DU-145, 17.1 µM (inactive); in the experiment with NCI-H522 it was 20.4 µM (inactive); with SNB-75, 17.9 µM (inactive); in the experiment with EKVX it was 19.8 µM (inactive). Also, the GI50 is 17.6 µM (inactive) with OVCAR-5; 18.7 µM (inactive) in the experiment on LOX IMVI; 13.7 µM (inactive) in the experiment on MDA-MB-435; 14.1 µM (inactive) with NCI/ADR-RES; 13.1 µM (inactive) in the experiment with UACC-257; 20.4 µM (inactive) in the experiment on SF-539. In addition, in the experiment with HOP-92, the GI50 was 25.1 µM (inactive).
Turning to `O=C(O)c1ccccc1CC(Cc1ccccc1)C(=O)O` (configuration not stated), the GI50 in the experiment on M14, with Malme-3M, with CAKI-1, in the experiment with U-251, in the experiment on HOP-62 and in the experiment on OVCAR-3 was > 100 µM (inactive) in each case. For the same compound, the GI50 in the experiment with SNB-19, in the experiment with SW-620, in the experiment on DU-145, in the experiment with NCI-H522, in the experiment on SNB-75 and in the experiment on EKVX was > 100 µM (inactive) in each case. For the same compound, the GI50 with OVCAR-5, with LOX IMVI, in the experiment on MDA-MB-435, with NCI/ADR-RES, in the experiment on UACC-257 and in the experiment on SF-539 was > 100 µM (inactive) in each case. In the experiment with HOP-92, the GI50 is > 100 µM (inactive).
In the case of `N#C[BH2-][n+]1ccc(C(=O)NNCc2ccccc2)cc1`, the GI50 with M14, in the experiment with Malme-3M, in the experiment with CAKI-1, in the experiment with U-251, in the experiment on OVCAR-3 and in the experiment with SNB-19 was > 100 µM (inactive) throughout. Also, the GI50 in the experiment with SW-620, in the experiment on DU-145, in the experiment with NCI-H522, in the experiment on SNB-75, in the experiment on EKVX and in the experiment on OVCAR-5 was > 100 µM (inactive) in each case. The GI50 in the experiment with LOX IMVI, in the experiment with MDA-MB-435, in the experiment with UACC-62, in the experiment with NCI/ADR-RES, with UACC-257 and with SF-539 was > 100 µM (inactive) in each case. The GI50 in the experiment with HOP-92 was > 100 µM (inactive).
As for `CCN(CC)CCC(=O)c1ccc(C)cc1`, the GI50 was 19.1 µM (inactive) in the experiment with M14; 23 µM (inactive) with Malme-3M; > 100 µM (inactive) in the experiment with U-251; > 100 µM (inactive) in the experiment with HOP-62; 17.7 µM (inactive) in the experiment on OVCAR-3; > 100 µM (inactive) in the experiment with SNB-19. Moreover, the GI50 was 17 µM (inactive) with SW-620; 39.6 µM (inactive) with DU-145; 13.8 µM (inactive) in the experiment with NCI-H522; 11.5 µM (inactive) in the experiment with SNB-75; 31.3 µM (inactive) with EKVX; 17.3 µM (inactive) in the experiment on OVCAR-5. Further, the GI50 was 29.9 µM (inactive) in the experiment on LOX IMVI; 19 µM (inactive) in the experiment on MDA-MB-435; 28.4 µM (inactive) with UACC-62; 25.5 µM (inactive) in the experiment with NCI/ADR-RES; 17.2 µM (inactive) in the experiment on UACC-257; 88.3 µM (inactive) with SF-539. The GI50 in the experiment with HOP-92 is 18.2 µM (inactive).
